Experimental data published in ChEMBL document CHEMBL1141275, “Sesquiterpenoids from Bombax malabaricum” (J Nat Prod, 2007).
The source made the active and inactive calls. The calls are words filed in the database; no cut-off is given here.

Assays:
Type in all cases: functional, cell-based
HGC-27 = assay: Cytotoxicity against human HGC27 cells by MTT assay
HeLa = assay: Cytotoxicity against human HeLa cells by MTT assay
A549 = assay: Cytotoxicity against human A549 cells by MTT assay

SMILES	IC50 (HGC-27) [µM]	also measured
COC1=C(C)C(=O)c2c(C(C)C)cc(O)c(C(=O)O)c2C1=O	> 10	–
COc1c(O)c(C)cc2c(C(C)C)cc(O)c(C=O)c12	> 10	–
COc1c(C)cc2c(C(C)C)cc(O)c3c2c1OC3=O	> 10	–
COC1=C2OC(=O)c3c(O)cc(C(C)C)c(c32)C(=O)C1(C)O (stereo not drawn) [BOMBAMALONE A]	> 10	–
CC1=C2OC(C)(C)c3cc4c(c(c32)C(=O)C1=O)C(C)(O)C=CO4 (stereo not drawn) [BOMBAMALONE B]	> 10	Activity (HeLa): inactive; Activity (A549): inactive
COc1c(O)c(C)cc2c1C(=O)C(=O)C=C2C(C)C [BOMBAMALONE C]	> 10	–
CC1=C2OC(C)(C)c3cc(O[C@@H]4O[C@H](CO)[C@@H](O)[C@H](O)[C@H]4O)c(C(=O)O)c(c32)C(=O)C1=O [BOMBAMALOSIDE]	> 10	–
Cc1cc2c(cc1O)[C@@](C)(O)C(=O)C=C2C(C)C [LACINILENE C]	> 10	–
CC(=O)O[C@H]1C(=O)[C@@]2(C)[C@H]([C@H](OC(=O)c3ccccc3)[C@]3(O)C[C@H](OC(=O)[C@H](O)[C@@H](NC(=O)c4ccccc4)c4ccccc4)C(C)=C1C3(C)C)[C@]1(OC(C)=O)CO[C@@H]1C[C@@H]2O [PACLITAXEL]	0.778	IC50 (HeLa): 0.0056 µM; IC50 (A549): 0.0126 µM
